The source of these data is patent US11760979B2, “Isolated liver cancer stem cell and method for drug screening thereof” (LICENSE BIOTECHNOLOGY Co., Ltd., priority 2020, dated 2023).

“Also recorded” adds a separate entry of the source.

Test [1] has as its system TW-1 cell line. As to the kind of experiment: In vitro drug screening test (cell survival rate). In kind it is cell-based, rat. On the procedure: The purpose of the method of drug screening is to evaluate the inhibitory ability of the active ingredients of currently used anticancer drugs against the growth, recurrence, or metastasis of TW-1 cell line, and HTC cell line was used as control group. The active ingredient of anticancer drug be used in the embodiment was Sorafenib.
TW-1 cell line and HTC cell line were seeded in 96-well plate with 2×10^5 cells/well, 1 μM, 5 μM, 10 μM, 20 μM and 40 μM of Sorafenib were respectfully used for treating cells once the cells were attached, and the negative control group cells were treated with PBS.

For test [2], the system named is TW-1 cell line. Briefly: In vivo drug screening test, TW-1 cell line transplanted subcutaneously. The settings on record: nude mice. The arrangement: species or system BALB/cAnN.Cg-Foxnl^nu/CrlNarl nude mice. As to the method:
The purpose of the method of drug screening is to evaluate the inhibitory ability of the active ingredients of currently used anticancer drugs against the growth, recurrence, or metastasis of TW-1 cell line, and BALB/cAnN.Cg-Foxnl^nu/CrlNarl nude mice were used as the animal model. The active ingredient of anticancer drug be used in the embodiment was Sorafenib.
BALB/cAnN.Cg-Foxnl^nu/CrlNarl nude mice were grouped into 3 groups, control group (Control), low-dose Sorafenib group (10 mg/kg body weight (BD)) and high-dose Sorafenib group (50 mg/kg body weight (BD)), 5 mice in each group.
Transplanting of TW-1 cell line into BALB/cAnN.Cg-Foxnl^nu/CrlNarl nude mice were processed with 5×10^5 cells by subcutaneous injection for evaluating the effect of anticancer drugs against TW-1 cell line.
After the tumor grew to appropriate size (100-150 mm^3) that was able to be measured at the TW-1 cell line transplanted position, the mice were treated with Sorafenib (Sorafenib groups) or PBS (control group) once per three days, and tumor generation of the mice were measured for 30 days the tumor volume of mice were recorded once per five days.

Consider `CNC(=O)c1cc(Oc2ccc(NC(=O)Nc3ccc(Cl)c(C(F)(F)F)c3)cc2)ccn1` [Sorafenib], for which, in the test with TW-1 cell line [1] (40 μM Sorafenib, 24 and 48 hours post-treatment), the cell growth result is on record as “the cell growth was decreased; also recorded: had the ability to inhibit growth of TW-1 cell line, but TW-1 cell line was not killed”. Besides, the “sensitivity to Sorafenib (cell survival rate), TW-1 cell line compared with HTC cell line” value in the test on TW-1 cell line [1] (concentration lower than 10 μM, after treatment for 24 hours, HTC cell line as control) was “higher sensitivity”. In addition, the “drug tolerance of TW-1 cell line compared with HTC cell lines” value in the test on TW-1 cell line [1] (high concentration (up to 40 μM), more obvious after 48 hours post-treatment) is recorded as “much higher drug tolerance”. Besides, in the test on TW-1 cell line [2] (50 mg/kg vs 10 mg/kg body weight, once per three days, 30 days), the “tumor volume of high-dose Sorafenib group vs low-dose Sorafenib group” value is “significantly higher than that in low-dose Sorafenib group mice”. Besides, in the test on TW-1 cell line [2] (10 and 50 mg/kg body weight, once per three days, measured for 30 days), the “tumor volume of Sorafenib treating groups vs control group” value is “significantly higher than that in control group”. Besides, the “metastasis of TW-1 cell line to lung” value with TW-1 cell line [2] (high-dose Sorafenib (50 mg/kg body weight), drug dependent) was “high-dose Sorafenib induced high metastasis”.
